In patent US20240425464A1, “Substituted Monohydrazides as Potent Antifungal Agents” (University of Kentucky Research Foundation, priority 2023, published 2024):
≈ marks a conversion by molar mass, not a printed value. Like-named read-outs stand apart in the source and are kept apart here.

Columns and labels:
Format in all cases: cell-based, Candida albicans
[1] = system: C. albicans ATCC MYA-2310 (E); assay: MIC determination by in vitro antifungal assay; conditions: strain E = C. albicans ATCC MYA-2310
Method in brief: (§1)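 CLSI M27-A3/M38-A2 microdilution, modified. Medium: RPMI 1640 + 0.165 M MOPS, pH 7.0. Compound range 0.06-31.3 μg/mL, double dilution. Incubation 48 h, 35° C. Yeast inoculum: OD600 0.12 (˜1×10^6 CFU/mL), then 1:100.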

[2] = system: C. albicans ATCC MYA-1237 (F); assay: MIC determination by in vitro antifungal assay; conditions: strain F = C. albicans ATCC MYA-1237(R)
Method in brief: as §1

[3] = system: C. albicans ATCC 64124 (B); assay: MIC determination by in vitro antifungal assay
Method in brief: as §1

[4] = system: C. albicans ATCC 90819 (D); assay: MIC determination by in vitro antifungal assay
Method in brief: as §1

[5] = system: C. albicans ATCC MYA-2876 (C); assay: MIC determination by in vitro antifungal assay; conditions: strain C = C. albicans ATCC MYA-2876(S)
Method in brief: as §1

[6] = system: C. albicans ATCC MYA-1003 (G); assay: MIC determination by in vitro antifungal assay; conditions: strain G = C. albicans ATCC MYA-1063(R) (footnote), MYA-1003 in text
Method in brief: as §1

[7] = system: C. albicans ATCC 10231 (strain A); assay: MIC determination by in vitro antifungal assay (CLSI broth dilution); conditions: strain A = C. albicans ATCC 10231, no visible growth, 48 h at 35° C.
Method in brief: as §1

[8] = Candida albicans, read-out: MIC
[9] = Candida albicans, ATCC64124, strain B = C. albicans ATCC 64124, read-out: MIC
[10] = Candida albicans, ATCC90819, strain D = C. albicans ATCC 90819(R), read-out: MIC
[11] = Candida albicans, ATCC10231, 48 h, read-out: MIC
[12] = strain B = C. albicans ATCC 64124
[13] = strain D = C. albicans ATCC 90819(R)

Row | Structure (SMILES) | MIC [1, 8] | MIC [2, 8] | MIC [3, 9] | MIC [4, 10] | MIC [5, 8] | MIC [6, 8] | MIC [7, 11] | MIC [1] | MIC [2] | MIC [3, 12] | MIC [4, 13] | MIC [5] | MIC [6] | MIC [7]
1 | O=C(NNc1ccc(F)cc1F)c1ncc(F)cc1F [Compound 7g] | 3.9 µg/mL (≈ 13.7 µM) | 3.9 µg/mL (≈ 13.7 µM) | 3.9 µg/mL (≈ 13.7 µM) | 3.9 µg/mL (≈ 13.7 µM) | 3.9 µg/mL (≈ 13.7 µM) | 1.95 µg/mL (≈ 6.84 µM) | 0.98 µg/mL (≈ 3.44 µM) |  |  |  |  |  |  | 
2 | O=C(NNc1cccc(F)c1)c1nc(F)ccc1F [Compound 8a] |  |  |  |  |  |  |  | 1.95 μg/mL^−1 | 1.95 μg/mL^−1 | 0.98 μg/mL^−1 | 3.9 μg/mL^−1 | 1.95 μg/mL^−1 | 0.98 μg/mL^−1 | 0.98 μg/mL^−1
3 | COc1cccc(NNC(=O)c2nc(F)ccc2F)c1 [Compound 8c] | 3.9 µg/mL (≈ 14 µM) | 1.95 µg/mL (≈ 6.98 µM) | 1.95 µg/mL (≈ 6.98 µM) | 7.8 µg/mL (≈ 27.9 µM) | 3.9 µg/mL (≈ 14 µM) | 1.95 µg/mL (≈ 6.98 µM) | 0.98 µg/mL (≈ 3.51 µM) |  |  |  |  |  |  | 
4 | O=C(NNc1ccc(F)cc1)c1nc(F)ccc1F [Compound 8d] | 0.98 µg/mL (≈ 3.67 µM) | 0.98 µg/mL (≈ 3.67 µM) | 0.98 µg/mL (≈ 3.67 µM) | 0.98 µg/mL (≈ 3.67 µM) | 0.98 µg/mL (≈ 3.67 µM) | 0.49 µg/mL (≈ 1.83 µM) | 0.24 µg/mL (≈ 0.898 µM) |  |  |  |  |  |  | 
5 | O=C(NNc1ccc(Cl)cc1)c1nc(F)ccc1F [Compound 8e] |  |  |  |  |  |  |  | 3.9 μg/mL^−1 | >31.3 μg/mL^−1 | 7.8 μg/mL^−1 | 7.8 μg/mL^−1 | 3.9 μg/mL^−1 | 3.9 μg/mL^−1 | 3.9 μg/mL^−1
6 | COc1ccc(NNC(=O)c2nc(F)ccc2F)cc1 [Compound 8f] | 1.95 µg/mL (≈ 6.98 µM) | 0.98 µg/mL (≈ 3.51 µM) | 1.95 µg/mL (≈ 6.98 µM) | 1.95 µg/mL (≈ 6.98 µM) | 1.95 µg/mL (≈ 6.98 µM) | 0.98 µg/mL (≈ 3.51 µM) | 1.95 µg/mL (≈ 6.98 µM) |  |  |  |  |  |  | 
7 | O=C(NNc1ccc(F)cc1F)c1nc(F)ccc1F [Compound 8g] | 1.95 µg/mL (≈ 6.84 µM) | 1.95 µg/mL (≈ 6.84 µM) | 1.95 µg/mL (≈ 6.84 µM) | 3.9 µg/mL (≈ 13.7 µM) | 1.95 µg/mL (≈ 6.84 µM) | 0.98 µg/mL (≈ 3.44 µM) | 0.98 µg/mL (≈ 3.44 µM) |  |  |  |  |  |  | 
8 | O=C(NNc1cccc(F)c1)c1cnccn1 [Compound 9a] |  |  |  |  |  |  |  | 7.8 μg/mL^−1 | 0.98 μg/mL^−1 | 1.95 μg/mL^−1 | 0.98 μg/mL^−1 | 3.9 μg/mL^−1 | 0.98 μg/mL^−1 | 0.24 μg/mL^−1
9 | O=C(NNc1cccc(Cl)c1)c1cnccn1 [Compound 9b] | 7.8 µg/mL (≈ 31.4 µM) | 0.98 µg/mL (≈ 3.94 µM) | 1.95 µg/mL (≈ 7.84 µM) | 3.9 µg/mL (≈ 15.7 µM) | 1.95 µg/mL (≈ 7.84 µM) | 0.98 µg/mL (≈ 3.94 µM) | 0.24 µg/mL (≈ 0.965 µM) |  |  |  |  |  |  | 
10 | COc1cccc(NNC(=O)c2cnccn2)c1 [Compound 9c] | 1.95 µg/mL (≈ 7.98 µM) | 1.95 µg/mL (≈ 7.98 µM) | 0.98 µg/mL (≈ 4.01 µM) | 1.95 µg/mL (≈ 7.98 µM) | 1.95 µg/mL (≈ 7.98 µM) | 0.98 µg/mL (≈ 4.01 µM) | 0.49 µg/mL (≈ 2.01 µM) |  |  |  |  |  |  | 
11 | O=C(NNc1ccc(F)cc1)c1cnccn1 [Compound 9d] | 7.8 µg/mL (≈ 33.6 µM) | 0.98 µg/mL (≈ 4.22 µM) | 1.98 µg/mL (≈ 8.53 µM) | 0.98 µg/mL (≈ 4.22 µM) | 7.8 µg/mL (≈ 33.6 µM) | 1.95 µg/mL (≈ 8.4 µM) | 0.24 µg/mL (≈ 1.03 µM) |  |  |  |  |  |  | 
12 | O=C(NNc1ccc(Cl)cc1)c1cnccn1 [Compound 9e] |  |  |  |  |  |  |  | 1.95 μg/mL^−1 | 0.98 μg/mL^−1 | 1.95 μg/mL^−1 | 0.98 μg/mL^−1 | 3.9 μg/mL^−1 | 1.95 μg/mL^−1 | 0.98 μg/mL^−1
13 | COc1ccc(NNC(=O)c2cnccn2)cc1 [Compound 9f] | 1.95 µg/mL (≈ 7.98 µM) | 0.98 µg/mL (≈ 4.01 µM) | 0.98 µg/mL (≈ 4.01 µM) | 0.98 µg/mL (≈ 4.01 µM) | 1.95 µg/mL (≈ 7.98 µM) | 1.95 µg/mL (≈ 7.98 µM) | 0.49 µg/mL (≈ 2.01 µM) |  |  |  |  |  |  | 
14 | O=C(NNc1ccc(F)cc1F)c1cnccn1 [Compound 9g] | 3.9 µg/mL (≈ 15.6 µM) | 0.49 µg/mL (≈ 1.96 µM) | 0.98 µg/mL (≈ 3.92 µM) | 0.98 µg/mL (≈ 3.92 µM) | 0.98 µg/mL (≈ 3.92 µM) | 0.49 µg/mL (≈ 1.96 µM) | 0.24 µg/mL (≈ 0.959 µM) |  |  |  |  |  |  | 
15 | O=C(NNc1cc(F)ccc1F)c1cnccn1 [Compound 9h] | > 31.3 µg/mL | 3.9 µg/mL (≈ 15.6 µM) | 7.8 µg/mL (≈ 31.2 µM) | 3.9 µg/mL (≈ 15.6 µM) | 3.9 µg/mL (≈ 15.6 µM) | 1.95 µg/mL (≈ 7.79 µM) | 0.24 µg/mL (≈ 0.959 µM) |  |  |  |  |  |  | 
16 | O=C(NNc1cc(F)cc(F)c1)c1cnccn1 [Compound 9i] | 15.6 µg/mL (≈ 62.3 µM) | 1.95 µg/mL (≈ 7.79 µM) | 3.9 µg/mL (≈ 15.6 µM) | 3.9 µg/mL (≈ 15.6 µM) | 7.8 µg/mL (≈ 31.2 µM) | 1.95 µg/mL (≈ 7.79 µM) | 0.24 µg/mL (≈ 0.959 µM) |  |  |  |  |  |  | 
17 | O=C(NNc1cc(Cl)cc(Cl)c1)c1cnccn1 [Compound 9j] | 7.8 µg/mL (≈ 27.6 µM) | 1.95 µg/mL (≈ 6.89 µM) | 3.9 µg/mL (≈ 13.8 µM) | 1.95 µg/mL (≈ 6.89 µM) | 3.9 µg/mL (≈ 13.8 µM) | 3.9 µg/mL (≈ 13.8 µM) | 0.49 µg/mL (≈ 1.73 µM) |  |  |  |  |  |  | 
